Literature values as cited in patent US20110086017A1, “Medical Food composition and methods for management of inflammatory processes in mammals” (priority 2009, published 2011).

Test system: plasma exudate at the site of inflammation
Settings: animal study; by decreasing bradykinin and pre-kallikrein levels

## Bromelain
  plasma exudate at the site of inflammation: dose-dependently reduced plasma exudate
